Measurements as given in US20140243419A1, “MUCOSALLY-APPLIED AGENT FOR PREVENTION, AMELIORATION OR TREATMENT OF RETINAL DISEASE” (ROHTO PHARMACEUTICAL CO., LTD., priority 2013, published 2014).

Legend:
[1] = tested on: NMDA-induced glaucoma rat model; assay: Protective effect against NMDA-induced nerve damage, administration by instillation to the eye; type: in vivo, Sprague-Dawley (SD) rats; details: Test 2, FIG. 1: 1% memantine solution in PBS instilled twice a day for five days; 5 μL of 4 mM NMDA intravitreously; vs base (PBS)
Text: (§1) In recent years the glutamate analogue NMDA (N-methyl-D-aspartate) has been widely reported to be one of causative agents of neurodegenerative diseases including Alzheimer's disease. In the ophthalmic field, NMDA is considered to be involved in optic nerve damage in glaucoma (Brain Research Bulletin, 81 (2010) 349-358). Accordingly, in this experiment rat models with glaucoma induced by NMDA were used to evaluate the neuroprotective effect of GGA.
To Sprague-Dawley (SD) rats (n=8), an eye drop containing 1% (w/v) GGA (all-trans form) or a control eye drop not containing GGA was pre-administered by instillation to the eye twice a day for five days. On the fifth day after the start of the instillation, 5 μL of 4 mM NMDA was intravitreously administered to induce nerve damage (Test 1). […]
(§2) Three days after the administration of NMDA, the eyeballs were harvested, fixed in half Karnovsky's fixative solution for 24 hours, embedded in paraffin, thin sectioned and stained with hematoxylin-eosin (HE) to prepare histopathological sections. The histological sections were observed under an optical microscope and the thickness (μm) of the inner plexiform layer (IPL) of the retina was measured. Based on the thickness of the inner plexiform layer (IPL) of the retina, the neuroprotective effect of the tested eye drops was evaluated.

[2] = tested on: human corneal epithelial cells (HCET); assay: Cell permeability (Transwell), HCET; type: in vitro ADME; details: HCET on Transwell; 0.1% GGA (all-trans:5Z-mono-cis 6:4); 30 minutes or 4 hours; compared with MDCK-I; FIG. 3
Procedure: (§3) The following test was performed using three types of cells, human corneal epithelial cells (HCET), human nasal septum squamous carcinoma cells (RPMI-2650), and canine renal tubular epithelial cells (MDCK-I), which are often used as an intestinal permeability assay model. The medium used for culture of each type of cells is shown below.
HCET: a liquid medium containing an equal ratio of Dulbecco's modified Eagle's basal medium/Ham's F12 (DMEM/F-12, Invitrogen) supplemented with 0.5% DMSO (Wako Pure Chemical Industries, Ltd.), 10 ng/mL epidermal growth factor (R&D), 5 μg/mL insulin (Invitrogen) and 5% (v/v) fetal calf serum (Daiichi Pure Chemicals)
GGA having a weight ratio of the all-trans form to the 5Z-mono-cis form of 6:4 (Wako Pure Chemical Industries, Ltd.) was used as a test substance. Amounts of 100 mg of GGA and 0.25 mg of α-tocopherol (Wako Pure Chemical Industries, Ltd.) as an antioxidant were weighed and dissolved in 789 mg of 100% ethanol. […]
(§4) Each type of cells was seeded onto a Transwell 24-well microplate (CORNING) at 5.0×10, cells per well and cultured under 5% CO2 at 37° C. […] After the culture period, the culture supernatant in the Transwells was recovered and the residual GGA in the supernatant was measured. […]
(§5) The concentration of GGA was measured as follows. […]

[3] = tested on: retinal detachment-induced animal; details: intraperitoneal administration; cited from earlier work
[4] = tested on: multiple sclerosis mouse model; details: oral administration; cited from earlier work
glaucoma rat model = details: intraperitoneal administration; cited from earlier work
[5] = tested on: NMDA-induced glaucoma rat model; assay: Protective effect against NMDA-induced nerve damage, instillation into the nose and administration to the oral cavity; type: in vivo, Sprague-Dawley (SD) rats; details: vs no GGA
Procedure: as §1
To Sprague-Dawley (SD) rats (n=6), 20 μL of 100% (w/v) GGA (all-trans form) was intranasally administered once a day for five days and after each administration the rats were maintained under anesthesia for 30 minutes. On the third day after the start of the administration of GGA, 5 μL of 4 mM NMDA was intravitreously administered to induce nerve damage. […]
as §2, with “in” for “in half”

[6] = tested on: human nasal septum squamous carcinoma cells (RPMI-2650); assay: Cell permeability (Transwell), RPMI-2650; type: in vitro ADME; details: RPMI-2650 on Transwell; 0.1% GGA (all-trans:5Z-mono-cis 6:4); 30 minutes or 4 hours; compared with MDCK-I; FIG. 3
Procedure: as §3
RPMI-2650: a minimum essential medium (MEM, Invitrogen) supplemented with 10% (v/v) fetal calf serum (Daiichi Pure Chemicals)
GGA having a weight ratio of the all-trans form to the 5Z-mono-cis form of 6:4 (Wako Pure Chemical Industries, Ltd.) was used as a test substance. Amounts of 100 mg of GGA and 0.25 mg of α-tocopherol (Wako Pure Chemical Industries, Ltd.) as an antioxidant were weighed and dissolved in 789 mg of 100% ethanol. The GGA dissolved in ethanol was diluted and dissolved in serum-free medium appropriate for each type of cells to a final concentration of 0.1 w/v %.
as §4, with “C. To each of the Transwells' lower chambers, 600 μL of the same medium as used for cell culture was added.” for “C.”
as §5

[7] = tested on: mouse with photoreceptor cell damage caused by light irradiation; details: oral administration; cited from earlier work
[8] = Decomposition of teprenone eye drop by direct sunlight in containers; type: physicochemical; details: direct sunlight 24 hours; Container C (polyethylene terephthalate); vs aluminum foil covered control
Procedure: An eye drop containing teprenone was prepared. Specifically, the eye drop was prepared as follows. To surfactants (polysorbate 80 and POE castor oil) warmed to 65° C., teprenone was added and dissolved under stirring in hot water bath at 65° C. for 2 minutes. Water at 65° C. was added, a buffer solution was added, and the mixture was mixed under stirring to give a homogeneous solution. The pH and osmotic pressure were adjusted with hydrochloric acid or sodium hydroxide. The resulting solution was filtered through a membrane filter with a pore size of 0.2 μm (bottle top filter, Thermo Fisher Scientific) to give a clear sterile eye drop.
The eye drop was separately poured, using a glass volumetric pipette, into 10- to 15-mL plastic or glass containers each in an amount of 5 mL (5 g) and the containers were sealed. These eye drops were placed in the upright position on a test-tube stand and left to stand under direct sunlight for 24 hours (test samples). […]
The amount of teprenone contained in the test or control eye drops was measured by HPLC and the amount of decomposition (mg/100 mL) by light irradiation was calculated. The amount of decomposition by light irradiation was calculated as follows: […]

[9] = tested on: mouse with retinal injury induced by ischemia; details: oral administration; cited from earlier work

Compound | neuroprotective effect based on thickness of the inner plexiform layer (IPL) of the retina [1] | permeability of GGA through cells [2] | apoptosis of photoreceptor cells [3] | expression of heat shock protein 70 [3] | cell loss in the ganglion [4] | number of degenerating axons in the optic nerve [4] | visual function [4] | expression of heat shock protein 72 (glaucoma rat model) | optic nerve damage (glaucoma rat model) | retinal ganglion cell death (glaucoma rat model) | neuroprotective effect based on thickness of the inner plexiform layer (IPL) of the retina ([5]; FIG. 2: 20 μL of 100% (w/v) GGA (all-trans form) intranasally once a day for five days) | neuroprotective effect based on thickness of the inner plexiform layer (IPL) of the retina ([5]; FIG. 2: 100 μL of 100% (w/v) GGA (all-trans form) to the oral cavity once a day for five days) | permeability of GGA through cells [6] | thioredoxin and heat shock protein 72 in the retinal pigment epithelium [7] | Amount of decomposition [8] | number of surviving retinal neurons [9]
CC12CC3CC(C)(C1)CC(N)(C3)C2 [memantine] | no neuroprotective effect | – | – | – | – | – | – | – | – | – | – | – | – | – | – | –
geranylgeranylacetone [GGA] | – | higher than that through MDCK-I | reduced the apoptosis of photoreceptor cells significantly | induced the expression of heat shock protein 70 | prevented cell loss in the ganglion | reduced the number of degenerating axons in the optic nerve | improved the visual function | induced the expression of heat shock protein 72 | ameliorated optic nerve damage | reduced retinal ganglion cell death | apparent neuroprotective effect | apparent neuroprotective effect | higher than that through MDCK-I | induced thioredoxin and heat shock protein 72 in the retinal pigment epithelium | significantly inhibited the decomposition of GGA | significantly increased the number of surviving retinal neurons
